Assay results from PubChem BioAssay (NCI).
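The compound was tested at five concentrations on cells cultured in 96-well plates, with a 48-hour exposure period. At the GI50, growth is halved. TGI denotes the concentration required for complete inhibition of growth.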

Tests used:
Test in all cases: NCI tumour cell line growth inhibition, 48 h
SW-620 colon = tested on: SW-620 colon
A498 renal = tested on: A498 renal
EKVX NSCLC = tested on: EKVX NSCLC
OVCAR-5 ovarian = tested on: OVCAR-5 ovarian
UACC-257 melanoma = tested on: UACC-257 melanoma
K-562 leukemia = tested on: K-562 leukemia
NCI-H23 lung = tested on: NCI-H23 lung
HOP-62 NSCLC = tested on: HOP-62 NSCLC
MCF7 breast = tested on: MCF7 breast
HOP-92 NSCLC = tested on: HOP-92 NSCLC

Row | Structure (SMILES) | GI50 (SW-620 colon) [µM] | TGI (SW-620 colon) [µM] | GI50 (A498 renal) [µM] | TGI (A498 renal) [µM] | GI50 (EKVX NSCLC) [µM] | TGI (EKVX NSCLC) [µM] | GI50 (OVCAR-5 ovarian) [µM] | TGI (OVCAR-5 ovarian) [µM] | GI50 (UACC-257 melanoma) [µM] | TGI (UACC-257 melanoma) [µM] | TGI (K-562 leukemia) [µM] | GI50 (NCI-H23 lung) [µM] | TGI (NCI-H23 lung) [µM] | GI50 (HOP-62 NSCLC) [µM] | TGI (HOP-62 NSCLC) [µM] | GI50 (MCF7 breast) [µM] | TGI (MCF7 breast) [µM] | GI50 (HOP-92 NSCLC) [µM] | TGI (HOP-92 NSCLC) [µM] | GI50 (K-562 leukemia) [µM]
1 | O=C(/C=C/c1ccco1)c1cccc(Nc2nc(Nc3ccccc3)nc(Nc3ccccc3)n2)c1 | 18.2 | > 100 | 0.444 | 1.77 | 9.82 | > 100 | > 100 | > 100 | > 44.7 | > 83.8 | > 56.1 | 26.1 | > 100 | > 55.4 | > 100 | 1.92 | > 52.4 |  |  | 
2 | Nc1nc(-c2ccccc2Cl)cc(-c2ccc(Cl)cc2Cl)n1 | 3.41 | > 100 | 3.34 | 22.8 |  |  | 8.09 | > 100 | 11.9 | 55.2 | > 100 | 12.3 | > 100 | 8.21 | > 100 | 3.45 | > 100 | 0.527 | 7.62 | 3.97
3 | CC1(C)OC(=O)C(c2ccsc2)C(=O)O1 |  | > 100 |  |  |  | > 100 |  | > 100 |  | > 100 | > 100 |  | > 100 |  | > 100 |  |  |  | > 100 | 
4 | O=C(c1ccccc1)C(c1ccccc1)C1(O)C(=O)Nc2ccc(Br)cc21 (stereo unspecified) |  | > 100 |  | > 100 |  | > 100 |  | > 100 |  | 53.8 | 80.8 |  | > 100 |  | > 100 |  |  |  | > 100 | 
5 | C[C@]12CC[C@H](O)CC1CCC[C@@H]2O (stereo partly specified) |  | > 100 |  | > 100 |  | > 100 |  |  |  | > 100 | > 100 |  | > 100 |  | > 100 |  |  |  | > 100 | 
6 | c1ccc2c(c1)-c1nc3ccccc3cc1C2N1CCOCC1 (stereo unspecified) |  | > 100 |  | > 100 |  | > 100 |  | > 100 |  | > 100 | > 100 |  | > 100 |  | > 100 |  | > 100 |  |  | 
7 | O=C1C2Cc3ccccc3CN2C(=O)N1CCN1CCOCC1 (stereo unspecified) |  | > 100 |  | > 100 |  |  |  | > 100 |  |  | > 100 |  | > 100 |  | > 100 |  |  |  |  | 
8 | Cc1cc(=O)[nH]c2c1C(=O)C(=O)C=C2 | 24.7 | 67.8 |  |  | 54 | > 100 | 41.3 | > 100 | > 100 | > 100 | > 100 | 21.9 | 48.3 | 17.6 | 35.7 | 29 | 60.6 | 77.9 | > 100 | 34.3
9 | O=c1c2ccc(Br)cc2nc(-c2ccccc2)n1NC1OC(CO)C(O)C(O)C1O (stereo unspecified) |  | > 100 |  | > 100 |  | > 100 |  | > 100 |  | > 100 | > 100 |  | > 100 |  | > 100 |  |  |  | > 100 | 
10 | COc1ccc2c(c1)cn1c3ccc(OC)cc3[nH]c(=O)c21 | < 0.0147 | 1.36 | < 0.0258 |  | < 0.0256 | 1.76 | < 0.0232 | 1.81 | 14.6 | 29.5 |  | < 0.0238 | 0.934 | < 0.0252 | 1.66 |  |  |  |  | 
11 | c1ccc(Oc2cnc3ccccc3n2)cc1 | > 100 | > 100 | 14.7 | > 100 | 77.4 | > 100 | > 100 | > 100 | > 100 | > 100 | > 100 | > 100 | > 100 | > 100 | > 100 | > 100 | > 100 |  |  | > 100
12 | COc1cc(C2C(Cl)C(=O)N2NC(=O)c2ccccc2O)cc(OC)c1OC (stereo unspecified) |  | > 10 |  |  |  | > 10 |  | > 10 |  | 7.46 | > 10 |  | 9.95 |  |  |  | 7.36 |  | > 10 | 
13 | COc1cc(C2C(C(=O)Nc3ccccc3C)=C(C)NC(C)=C2C(=O)Nc2ccccc2C)ccc1O |  | > 100 |  | > 100 |  | > 100 |  | > 100 |  | > 100 | > 100 |  | > 100 |  | > 100 |  |  |  | > 100 | 
14 | Cc1cc2c(C=O)[nH]nc2c(C#N)c1C |  | > 100 |  | > 100 |  | > 100 |  | > 100 |  | > 100 | > 100 |  | > 100 |  | > 100 |  |  |  | 99.4 | 
15 | O=C(NCCOCCO)c1ccc(O)cc1 |  | > 100 |  | > 100 |  | 42.9 |  |  |  |  | > 100 |  | > 100 |  | > 100 |  |  |  | > 100 | 
16 | CCn1cc(C(=O)O)c(=O)c2cc(F)c(N3CCNCC3)nc21 |  | > 100 |  | > 100 |  | > 100 |  | > 100 |  | > 100 | > 100 |  | > 100 |  | > 100 |  |  |  | > 100 | 
17 | CSc1nnc2n1-c1ccccc1SCC2 |  | > 100 |  | > 100 |  | > 100 |  |  |  | > 100 | > 100 |  | > 100 |  | > 100 |  |  |  | > 100 | 
18 | CN=C(NC#N)NCc1ccccc1 |  | > 100 |  | > 100 |  | > 100 |  | > 100 |  | > 100 |  |  | > 100 |  | > 100 |  |  |  | > 100 | 
19 | C/C(=N\O)c1ccc(Nc2cc(-c3ccccc3)nc3c(O)cccc23)cc1 | 13.9 | 34.2 | 14.5 | 31 | 18.9 | > 100 | 23.8 | 47.4 | 11.7 | 24.4 | 97.6 | 17 | 49.5 | 12.9 | 26.6 |  |  | 20.1 | 44.6 | 15.2
20 | CCCCCCCCCCCCCCCc1nc(SCC(=O)O)n[nH]1 |  | > 100 |  |  |  | > 100 |  |  |  | > 100 | > 100 |  | > 100 |  | > 100 |  |  |  | 65 | 
